The target in the test is T1, Cdc7 (BEV coexpressed huCDC7/DBF4) (Homo sapiens, UniProt O00311).
T1 construct: made in house; host or cells: BEV (baculovirus expression vector) co-expression; insect cells are implied but no cell line is named
Description: Cdc7 enzyme inhibition assay ([33P]ATP, biotinylated peptide substrate, FlashPlate). It is filed as biochemical. Particulars: Table 3; enzyme inhibition data (Ki). The method, then:
Cdc7 (BEV coexpressed huCDC7/DBF4) is prepared internally. Cdc7 assays are conducted as follows with final concentrations as listed. […] Reactions are quenched after 1 hr by the addition of 90 μL stop buffer (50 mM EDTA, 2M NaCl). […] (Ki) for exemplary compounds.

The results in this text go back to patent US8435980B2 (AbbVie Inc., priority 2009, dated 2013).

Molecules are shown by their SMILES.

T1 sequence (O00311 whole entry): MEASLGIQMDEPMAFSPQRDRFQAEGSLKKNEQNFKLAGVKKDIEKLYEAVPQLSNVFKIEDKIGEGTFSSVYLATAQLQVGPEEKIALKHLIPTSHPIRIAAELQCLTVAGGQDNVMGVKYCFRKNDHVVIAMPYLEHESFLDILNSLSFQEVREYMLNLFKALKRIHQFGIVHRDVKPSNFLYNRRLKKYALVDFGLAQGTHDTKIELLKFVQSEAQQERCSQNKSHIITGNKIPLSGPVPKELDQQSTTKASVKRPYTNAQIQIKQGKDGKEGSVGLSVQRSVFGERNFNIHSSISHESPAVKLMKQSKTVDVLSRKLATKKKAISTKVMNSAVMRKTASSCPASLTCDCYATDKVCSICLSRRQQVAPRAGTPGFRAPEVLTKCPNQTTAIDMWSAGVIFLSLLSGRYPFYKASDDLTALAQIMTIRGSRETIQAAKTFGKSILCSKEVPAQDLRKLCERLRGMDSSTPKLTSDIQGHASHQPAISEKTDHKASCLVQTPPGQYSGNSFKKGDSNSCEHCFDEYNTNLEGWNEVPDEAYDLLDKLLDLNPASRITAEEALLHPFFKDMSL
T1 sequence (Q9UBU7 whole entry partner): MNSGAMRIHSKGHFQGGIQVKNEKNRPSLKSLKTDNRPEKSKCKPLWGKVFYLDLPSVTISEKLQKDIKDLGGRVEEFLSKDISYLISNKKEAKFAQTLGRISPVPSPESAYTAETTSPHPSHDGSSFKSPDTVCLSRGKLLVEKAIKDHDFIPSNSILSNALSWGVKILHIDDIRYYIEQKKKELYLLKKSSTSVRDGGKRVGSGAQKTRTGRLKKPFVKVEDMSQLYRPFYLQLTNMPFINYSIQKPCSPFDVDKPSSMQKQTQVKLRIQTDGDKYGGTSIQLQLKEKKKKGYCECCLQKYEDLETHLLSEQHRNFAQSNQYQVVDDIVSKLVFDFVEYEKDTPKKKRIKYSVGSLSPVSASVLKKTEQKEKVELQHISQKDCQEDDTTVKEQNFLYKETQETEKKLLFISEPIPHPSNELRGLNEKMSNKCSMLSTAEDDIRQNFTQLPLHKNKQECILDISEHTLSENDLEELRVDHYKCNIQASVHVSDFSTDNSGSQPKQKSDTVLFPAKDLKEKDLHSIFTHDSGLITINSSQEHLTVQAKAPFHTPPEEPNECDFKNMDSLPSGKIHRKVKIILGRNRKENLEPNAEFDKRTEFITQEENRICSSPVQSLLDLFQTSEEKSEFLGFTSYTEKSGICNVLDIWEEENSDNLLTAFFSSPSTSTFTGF

For orientation: Ki means a measure of affinity in units of concentration, obtained from inhibition or displacement. Low readings indicate higher affinity, high ones lower affinity. With `COc1cnc2[nH]cc(-c3cc(Cl)nc(NC4CCC(CC5CCC(NC(=O)C6CC6)CC5)CC4)c3)c2c1` (centres unmarked) [Example 240, N-[4-[(4-{[6-chloro-4-(5-methoxy-1H-pyrrolo[2,3-b]pyridin-3-yl)pyridin-2-yl]amino}cyclohexyl)methyl]cyclohexyl]cyclopropanecarboxamide], the Ki is below 10 nM.
For the compound `C#CCOc1cnc2[nH]cc(-c3cc(Cl)nc(N[C@H]4CC[C@H](N)CC4)c3)c2c1` [Example 241, (trans)-N1-(6-chloro-4-(5-(prop-2-ynyloxy)-1H-pyrrolo[2,3-b]pyridin-3-yl)pyridin-2-yl)cyclohexane-1,4-diamine], the Ki lay within 10 to 100 nM.
As for `O=C(NCc1ccccn1)c1cnc2[nH]cc(-c3cc(Cl)nc(NC4CCCCC4)c3)c2c1` [Example 242, 3-[2-chloro-6-(cyclohexylamino)pyridin-4-yl]-N-(pyridin-2-ylmethyl)-1H-pyrrolo[2,3-b]pyridine-5-carboxamide], the Ki is below 10 nM.
Consider `Clc1cc(-c2c[nH]c3ncc(-c4cncnc4)cc23)cc(NC2CCCCC2)n1` [Example 243, 6-chloro-N-cyclohexyl-4-[5-(pyrimidin-5-yl)-1H-pyrrolo[2,3-b]pyridin-3-yl]pyridin-2-amine], for which the Ki was below 10 nM.
The compound `CCCCS(=O)(=O)N[C@H]1CC[C@H](Nc2cc(-c3c[nH]c4ncc(OC)cc34)cc(Cl)n2)CC1` [Example 244, N-(trans-4-{[6-chloro-4-(5-methoxy-1H-pyrrolo[2,3-b]pyridin-3-yl)pyridin-2-yl]amino}cyclohexyl)butane-1-sulfonamide] displayed a Ki below 10 nM.
In the case of `Nc1ccc(-c2cnc3[nH]cc(-c4cc(Cl)nc(NC5CCCCC5)c4)c3c2)cn1` [Example 245, 4-[5-(6-aminopyridin-3-yl)-1H-pyrrolo[2,3-b]pyridin-3-yl]-6-chloro-N-cyclohexylpyridin-2-amine] it was below 10 nM; in that of `COc1cnc2[nH]cc(-c3cc(Cl)nc(N[C@H]4CC[C@H](NC(=O)CN)CC4)c3)c2c1` [Example 246, N-(trans-4-{[6-chloro-4-(5-methoxy-1H-pyrrolo[2,3-b]pyridin-3-yl)pyridin-2-yl]amino}cyclohexyl)glycinamide], below 10 nM; in that of `COc1ccnc2[nH]cc(-c3cc(Cl)nc(NC4CCCCC4)c3)c12` [Example 247, 6-chloro-N-cyclohexyl-4-(4-methoxy-1H-pyrrolo[2,3-b]pyridin-3-yl)pyridin-2-amine], below 10 nM.
The compound `CCNC(=O)Nc1cnc2[nH]cc(-c3cc(Cl)nc(NC4CCCCC4)c3)c2c1` [Example 248, 1-{3-[2-chloro-6-(cyclohexylamino)pyridin-4-yl]-1H-pyrrolo[2,3-b]pyridin-5-yl}-3-ethylurea] returned a Ki below 10 nM.
In turn, `O=C(N[C@H]1CC[C@H](Nc2cc(-c3c[nH]c4ncccc34)cc(Cl)n2)CC1)C1CN(Cc2ccncc2)C1` [Example 249, N-(trans-4-{[6-chloro-4-(1H-pyrrolo[2,3-b]pyridin-3-yl)pyridin-2-yl]amino}cyclohexyl)-1-(pyridin-4-ylmethyl)azetidine-3-carboxamide] came in with a Ki below 10 nM.
Compound `O=C(N[C@H]1CC[C@H](Nc2cc(-c3c[nH]c4ncccc34)cc(Cl)n2)CC1)C1CN(C2CCNCC2)C1` [Example 250, N-(trans-4-{[6-chloro-4-(1H-pyrrolo[2,3-b]pyridin-3-yl)pyridin-2-yl]amino}cyclohexyl)-1-(piperidin-4-yl)azetidine-3-carboxamide] yielded a Ki below 10 nM.
`COc1cnc2[nH]cc(-c3cc(Cl)nc(N[C@H]4CC[C@H](NC(=O)CNC5CCCCC5)CC4)c3)c2c1` [Example 251, N-(trans-4-{[6-chloro-4-(5-methoxy-1H-pyrrolo[2,3-b]pyridin-3-yl)pyridin-2-yl]amino}cyclohexyl)-N^2-cyclohexylglycinamide] showed a Ki below 10 nM.
The compound `COc1cnc2[nH]cc(-c3cc(Cl)nc(NC4CCC(C5CCN(C6CCC6)CC5)CC4)c3)c2c1` (centres unmarked) [Example 252, 6-chloro-N-[4-(1-cyclobutylpiperidin-4-yl)cyclohexyl]-4-(5-methoxy-1H-pyrrolo[2,3-b]pyridin-3-yl)pyridin-2-amine] yielded a Ki below 10 nM.
`COc1cnc2[nH]cc(-c3cc(Cl)nc(N[C@H]4CC[C@H](NS(=O)(=O)C5CCCCC5)CC4)c3)c2c1` [Example 253, N-(trans-4-{[6-chloro-4-(5-methoxy-1H-pyrrolo[2,3-b]pyridin-3-yl)pyridin-2-yl]amino}cyclohexyl)cyclohexanesulfonamide] had a Ki below 10 nM.
In the case of `COc1cnc2[nH]cc(-c3cc(Cl)nc(N[C@H]4CC[C@H](NC(=O)CN5CCOCC5)CC4)c3)c2c1` [Example 254, N-(trans-4-{[6-chloro-4-(5-methoxy-1H-pyrrolo[2,3-b]pyridin-3-yl)pyridin-2-yl]amino}cyclohexyl)-2-(morpholin-4-yl)acetamide], the Ki is below 10 nM.
The value for `CC(=O)Nc1cccc(-c2cnc3[nH]cc(-c4cc(Cl)nc(NC5CCCCC5)c4)c3c2)c1` [Example 255, N-(3-{3-[2-chloro-6-(cyclohexylamino)pyridin-4-yl]-1H-pyrrolo[2,3-b]pyridin-5-yl}phenyl)acetamide] was below 10 nM; that for `CS(=O)(=O)Nc1cnc2[nH]cc(-c3cc(Cl)nc(NC4CCCCC4)c3)c2c1` [Example 256, N-{3-[2-chloro-6-(cyclohexylamino)pyridin-4-yl]-1H-pyrrolo[2,3-b]pyridin-5-yl}methanesulfonamide] was below 10 nM.
`COc1cnc2[nH]cc(-c3cc(Cl)nc(NC4CCC(CC5CCC(NC(=O)c6cccnc6)CC5)CC4)c3)c2c1` (centres unmarked) [Example 257, N-{4-[(4-{[6-chloro-4-(5-methoxy-1H-pyrrolo[2,3-b]pyridin-3-yl)pyridin-2-yl]amino}cyclohexyl)methyl]cyclohexyl}pyridine-3-carboxamide] gave a Ki below 10 nM.
Compound `COc1cnc2[nH]cc(-c3cc(Cl)nc(N[C@H]4CC[C@H](NC(=O)CNCC(C)(C)C)CC4)c3)c2c1` [Example 258, N-(trans-4-{[6-chloro-4-(5-methoxy-1H-pyrrolo[2,3-b]pyridin-3-yl)pyridin-2-yl]amino}cyclohexyl)-N^2-(2,2-dimethylpropyl)glycinamide] came in with a Ki below 10 nM.
`COc1cnc2[nH]cc(-c3cc(Cl)nc(NC4CCC(CC5CCC(N(C)C)CC5)CC4)c3)c2c1` (centres unmarked) [Example 259, 6-chloro-N-(4-{[4-(dimethylamino)cyclohexyl]methyl}cyclohexyl)-4-(5-methoxy-1H-pyrrolo[2,3-b]pyridin-3-yl)pyridin-2-amine] yielded a Ki below 10 nM.
In turn, `COc1cnc2[nH]cc(-c3cc(Cl)nc(NC4CCCC(NS(=O)(=O)C5CC5)C4)c3)c2c1` (centres unmarked) [Example 260, N-(3-{[6-chloro-4-(5-methoxy-1H-pyrrolo[2,3-b]pyridin-3-yl)pyridin-2-yl]amino}cyclohexyl)cyclopropanesulfonamide] returned a Ki below 10 nM.
As for `COc1cnc2[nH]cc(-c3cc(Cl)nc(NC4CCCC(NC(C)=O)C4)c3)c2c1` (centres unmarked) [Example 261, N-(3-{[6-chloro-4-(5-methoxy-1H-pyrrolo[2,3-b]pyridin-3-yl)pyridin-2-yl]amino}cyclohexyl)acetamide], the Ki is below 10 nM.
`COc1cnc2[nH]cc(-c3cc(Cl)nc(NC4CCCC(NS(=O)(=O)c5cccs5)C4)c3)c2c1` (centres unmarked) [Example 262, N-(3-{[6-chloro-4-(5-methoxy-1H-pyrrolo[2,3-b]pyridin-3-yl)pyridin-2-yl]amino}cyclohexyl)thiophene-2-sulfonamide] displayed a Ki below 10 nM.
In turn, `COc1cnc2[nH]cc(-c3cc(Cl)nc(NC4CCCC(NC(=O)CN5CCCC5)C4)c3)c2c1` (centres unmarked) [Example 263, N-(3-{[6-chloro-4-(5-methoxy-1H-pyrrolo[2,3-b]pyridin-3-yl)pyridin-2-yl]-amino}cyclohexyl)-2-(pyrrolidin-1-yl)acetamide] registered a Ki below 10 nM.
The value for `Clc1cc(-c2c[nH]c3ncccc23)nc(NCC2CCCO2)n1` (centres unmarked) [Example 265, 4-chloro-6-(1H-pyrrolo[2,3-b]pyridin-3-yl)-N-(tetrahydrofuran-2-ylmethyl)pyrimidin-2-amine] was below 10 nM; that for `Clc1cc(-c2c[nH]c3ncccc23)nc(NCc2ccncc2)n1` [Example 266, 4-chloro-N-(pyridin-4-ylmethyl)-6-(1H-pyrrolo[2,3-b]pyridin-3-yl)pyrimidin-2-amine] was below 10 nM.
In the case of `Clc1cc(-c2c[nH]c3ncccc23)nc(NCc2cccnc2)n1` [Example 267, 4-chloro-N-(pyridin-3-ylmethyl)-6-(1H-pyrrolo[2,3-b]pyridin-3-yl)pyrimidin-2-amine] it was below 10 nM; in that of `Clc1cc(-c2c[nH]c3ncccc23)nc(NCc2ccccn2)n1` [Example 268, 4-chloro-N-(pyridin-2-ylmethyl)-6-(1H-pyrrolo[2,3-b]pyridin-3-yl)pyrimidin-2-amine], below 10 nM.
In the case of `CN(C)c1nc(Cl)cc(-c2c[nH]c3ncccc23)n1` [Example 269, 4-chloro-N,N-dimethyl-6-(1H-pyrrolo[2,3-b]pyridin-3-yl)pyrimidin-2-amine] it was below 10 nM.
As to `O=C(N[C@H]1CC[C@H](Nc2nc(Cl)cc(-c3c[nH]c4ncccc34)n2)CC1)C1CC1` [Example 271, N-(trans-4-{[4-chloro-6-(1H-pyrrolo[2,3-b]pyridin-3-yl)pyrimidin-2-yl]amino}cyclohexyl)cyclopropanecarboxamide], the Ki was below 10 nM.
`O=C(NC1CCCC(Nc2nc(Cl)cc(-c3c[nH]c4ncccc34)n2)C1)C1CC1` (centres unmarked) [Example 272, N-(3-{[4-chloro-6-(1H-pyrrolo[2,3-b]pyridin-3-yl)pyrimidin-2-yl]amino}cyclohexyl)cyclopropanecarboxamide] came in with an inhibitory constant (Ki) below 10 nM.
With `Clc1cc(-c2c[nH]c3ncccc23)nc(NC2CCCC(NC3CCC3)C2)n1` (centres unmarked) [Example 274, N-[4-chloro-6-(1H-pyrrolo[2,3-b]pyridin-3-yl)pyrimidin-2-yl]-N′-cyclobutylcyclohexane-1,3-diamine], the Ki is below 10 nM.
